Data from patent publication US20250228836A1, “BILASTINE COMPOSITION FOR ONCE-DAILY PARENTERAL ADMINISTRATION” (FAES FARMA, S.A., priority 2022, published 2025).
Converted amounts (≈) assume the structure as drawn.

How the values were obtained:
[1] = Solubility of bilastine vs. HPβCD concentration and pH; format: physicochemical; settings: aqueous HPβCD solution, thermodynamic from solid
Description: The concentration of bilastine in the solubility tests was determined by UV/vis spectrophotometer was a Cary® 60 UV-VIS.
The solubility of bilastine was determined at different concentrations of HPβCD and pH values.
The desired amount of HPβCD was dispersed in 40 ml of purified water in a 50 ml flask until complete dissolution and further diluted with water up to a final volume of 50 ml. Each solution was divided into three solutions (15 ml each) and the pH was adjusted with HCl 37% to the desired values (3, 5 or 7, respectively). Each solution was transferred again into three vials (5 mL solution each) in order to have several replicates for each sample. Bilastine was added in excess to each vial and the solutions were kept under magnetic stirring for 24 hours. After that time, the pH was adjusted again and they were kept stirring for another 24 hours. Finally, the samples were filtered through 0.45 μm filters (Biofil®, Nylon membrane, 13 mm Ø), the final pH was checked and the concentration was determined by UV spectrophotometry at a wavelength of 254 nm. The statistical analysis of the results was carried out using the Centurion XVI Statgraphics program version 16.1.15.

[2] = pH 5-8; cited from earlier work

- solubility at 48 h ([1]; aqueous with cosolvent or surfactant or cyclodextrin, Entry 3: HPβCD 30 % w/v, final pH 4.14): 37.8 mg/mL (≈ 81.5 mM)
- solubility at 48 h ([1]; aqueous with cosolvent or surfactant or cyclodextrin, Entry 4: HPβCD 20 % w/v, final pH 5.16): 18.4 mg/mL (≈ 39.6 mM)
- solubility at 48 h ([1]; aqueous with cosolvent or surfactant or cyclodextrin, Entry 5: HPβCD 30 % w/v, final pH 5.13): 27.2 mg/mL (≈ 58.7 mM)
- solubility at 48 h ([1]; aqueous with cosolvent or surfactant or cyclodextrin, Entry 6: HPβCD 30 % w/v, final pH 7.15): 16.9 mg/mL (≈ 36.5 mM)
- solubility at 48 h ([1]; pH 4.6, aqueous with cosolvent or surfactant or cyclodextrin, Entry 2: HPβCD 20 % w/v, final pH 4.60): 35.1 mg/mL (≈ 75.7 mM)
- solubility at 48 h ([1]; pH 4.7, aqueous with cosolvent or surfactant or cyclodextrin, Entry 1: HPβCD 10 % w/v, final pH 4.70): 18.3 mg/mL (≈ 39.4 mM)
SMILES: CCOCCn1c(C2CCN(CCc3ccc(C(C)(C)C(=O)O)cc3)CC2)nc2ccccc21 [Bilastine, 2-[4-(2-{4-[1-(2-ethoxyethyl)-1H-benzimidazol-2-yl]-1-piperidinyl}ethyl)phenyl]-2-methylpropanoic acid]
- water solubility of bilastine [2]: about 0.5 mg/ml
